Source: EP4703362A1 (Chengdu Sibeibo Pharmaceutical Technology Co., Ltd, priority 2023, dated 2024)
Read-outs that look alike come from different tables or passages of the source. Blank lines part the entries; values can stand above or below the compound they belong to.

Columns and labels:
[1] = plasma protein binding rate test, equilibrium dialysis (human); type: in vitro ADME; conditions: 1 µM, 6 hours, 37°C
Description: (§1) Protein binding rates of the compound of the present invention in plasma of rat, monkey and human were determined by an equilibrium dialysis method. Tested compounds of the present invention were the compounds in Examples 6, 8 and 29, and a control drug was Zavegepant.
(§2) 3.1 A dry dialysis membrane was rinsed with ultrapure water for 2-3 times, and then soaked in a phosphate buffer for 1 hour for later use. Polytetrafluoroethylene module was soaked in 20% ethanol for 30 minutes, and then surface moisture was dried with dust-free paper for later use. The pretreated dialysis membrane was assembled into a dialysis plate according to the product specification, and one side (receptor compartment) of an osmotic membrane in each dialysis well was added with 100 µL of receptor fluid (100 mM phosphate buffer solution plus 0.002% Tween 80).
(§3) 3.2 The plasma was put into a centrifuge tube, a working solution of a tested substance was added into the plasma, wherein a final concentration was 1 µM, and the mixture was turned upside down and mixed evenly (this step was carried out in ice bath). 20 µL of drug-containing plasma each was taken, and was respectively transferred to a 96-well sample plate according to two parts in parallel, and stored in a refrigerator at -20°C as a T0 sample.
(§4) 3.3 Another 100 µL of the above drug-containing plasma was transferred to the other side (sample compartment) of the membrane in the dialysis device according to two parts in parallel, and incubated under vibration at a constant temperature of 37°C for 6 hours. After 6 hours of incubation, 20 µL of the plasma was respectively taken out from the receptor compartment and the sample compartment after equilibration to obtain samples B and A. The samples B and A were respectively added with corresponding volumes of corresponding blank plasma or phosphate buffer solution (containing 0.002% Tween 80), so that a volume ratio of the plasma to the buffer solution in each sample well was 1: 1.
(§5) 3.4 All sample wells were added with 250 µL of methanol solution containing an internal standard, mixed evenly and then centrifuged in a centrifuge at 3800 rpm for 10 minutes. […]
(§6) A plasma protein binding rate and a recovery rate of the compound in plasma were calculated by the following formulas: dissociation percentage (%) = CB /CA; [formula] plasma protein binding rate (fb%) = 1−dissociation percentage (%); [formula] recovery rate (%) = (CB+CA)/CT0 [formula] wherein CB was a concentration of the compound in the receptor fluid after equilibrium dialysis; CA was a concentration of the compound in the drug-containing plasma after equilibrium dialysis; and CT0 was an initial concentration of the compound in plasma.

[2] = in-vivo pharmacokinetic study on SD rats, intravenous and intranasal administration; conditions: for AUC: read-out: Area under curve AUC; for half-life: read-out: Half-life period t1/2 (converted)
Description: Species: SD rats, male, SPF level.
2.1 An appropriate amount of drug was accurately weighed and added with 50 mM succinate buffer (diluted with D5W, pH=5-6), and mixed evenly and dissolved fully in an ultrasonic and vortexed mode to obtain a 0.2 mg/mL drug solution for intravenous (IV) administration.
2.2 An appropriate amount of drug was accurately weighed and added with 50 mM succinate buffer (diluted with pure water, pH=5-6), and mixed evenly and dissolved fully in an ultrasonic and vortexed mode to obtain a 10 mg/mL drug solution for intranasal (IN) administration.
5 minutes, 10 minutes, 15 minutes, 0.5 hour, 1 hour, 2 hours, 4 hours, 8 hours and 24 hours after administration.
Blood was collected through a jugular vein, about 0.2 mL of each sample was collected, EDTA-K2 was used for anticoagulation, the collected blood sample was placed on ice, and plasma was centrifugally separated within 2 hours (at 6000 g and 2-8°C for 5 minutes). The collected plasma samples were stored in a refrigerator at -80°C before analysis, and the remaining plasma samples after analysis were continuously stored in the refrigerator at -80°C for temporary storage.
A concentration of a specified compound in plasma was determined by an LC-MS/MS method, and main pharmacokinetic parameters were calculated by a Winnolin 8.3 non-compartmental model.

[3] = stability test in liver microsomes (rat); type: in vitro ADME
Description: (§7) The stability of the compound of the present invention in liver microsomes of rat, monkey and human was determined. Tested compounds of the present invention were the compounds in Examples 6, 8 and 29, and a control drug was Zavegepant.
(§8) 3.2 An appropriate amount of liver microsome solution was transferred into a 1 mL 96-deep-well plate, added with a tested drug liquid (or a probe substrate solution), and pre-incubated in a thermal mixer at 37°C for 5 minutes. Two parts of mixed solutions were taken out from the system and added with 1×PBS to replace NADPH, and the mixed solutions were taken out at 0 and 60 minutes respectively, and added with methanol (containing an internal standard) to terminate the reaction. In the remaining mixed system, each well was added with NADPH to start the reaction. In the tested substance group, mixed solutions were taken out from the system at 0, 5, 15, 30, 45 and 60 minutes, and in the control group, mixed solutions were taken out from the system at 0, 30 and 60 minutes, and the mixed solutions were added methanol (containing an internal standard) to terminate the reaction. All samples of the terminated reaction were mixed evenly and centrifuged in a centrifuge at 3800 rpm for 15 minutes, and the supernatant was taken for LC-MS/MS analysis.
(§9) A peak area was determined by an extracted ion chromatogram. A slope value k was determined by linear regression of a remaining percentage of a parent drug relative to a natural logarithm of an incubation time curve. According to the slope, in-vitro half-life periods (t1/2) were respectively calculated, and in-vitro intrinsic clearance rates (CLint, represented by µL/min/mg protein) were calculated. Calculation formulas were as follows: t1/2 = ln2/k = 0.693/k; and CLint = 0.693/t1/2 /liver microsome protein concentration [formula]

[4] = stability test in liver microsomes (monkey); type: in vitro ADME
Description: as §7, §8, §9

[5] = stability test in liver microsomes (human); type: in vitro ADME
Description: as §7, §8, §9

[6] = plasma protein binding rate test, equilibrium dialysis (monkey); type: in vitro ADME, cynomolgus monkey; conditions: 1 µM, 6 hours, 37°C
Description: as §1, §2, §3, §4, §5, §6

[7] = plasma protein binding rate test, equilibrium dialysis (rat); type: in vitro ADME, SD rat; conditions: 1 µM, 6 hours, 37°C
Description: as §1, §2, §3, §4, §5, §6

[8] = target: T1, CGRP receptor complex (Homo sapiens, UniProt O60894+Q16602); experiment: determination of cell functional antagonism - cAMP determination; type: cell-based
T1 construct: host or cells: SK-N-MC
T1 sequence (Q16602 23-461): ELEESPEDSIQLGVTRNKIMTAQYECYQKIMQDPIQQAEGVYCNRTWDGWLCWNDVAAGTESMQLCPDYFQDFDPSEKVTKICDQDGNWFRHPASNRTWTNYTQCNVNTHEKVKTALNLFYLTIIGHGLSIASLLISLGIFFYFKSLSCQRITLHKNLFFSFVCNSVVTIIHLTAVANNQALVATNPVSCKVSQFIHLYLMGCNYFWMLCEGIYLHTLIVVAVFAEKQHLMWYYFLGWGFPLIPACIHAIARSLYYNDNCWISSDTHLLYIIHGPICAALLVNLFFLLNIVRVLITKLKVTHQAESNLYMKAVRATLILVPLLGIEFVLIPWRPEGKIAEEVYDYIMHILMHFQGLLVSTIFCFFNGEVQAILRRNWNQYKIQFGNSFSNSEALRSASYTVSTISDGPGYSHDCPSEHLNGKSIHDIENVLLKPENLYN
T1 sequence (O60894 27-148): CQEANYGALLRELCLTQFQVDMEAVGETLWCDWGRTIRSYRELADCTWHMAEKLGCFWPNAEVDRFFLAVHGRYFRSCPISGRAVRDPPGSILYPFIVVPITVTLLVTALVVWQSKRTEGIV
Description: 1.Experimental principle A CGRP receptor complex was coupled with Gs in G protein, the combination of CGRP and CGRP receptor complex led to Gs activation, and cAMP (3',5'-cyclic adenosine monophosphate) was produced. 2.Experimental purpose The ability of the compound of the present invention to inhibit CGRP-stimulated cAMP formation in SK-N-MC cells was determined. 3.Experimental materials 3.1Experimental cell line: SK-N-MC (neuroepithelioma cells) from National Science and Technology Infrastructure - Biomedical Materials and Cell Resources. 3.2Reagents and consumables
4.Experimental steps • 4.1Cell preparation: The SK-N-MC cells were resuscitated and cultured in advance, and a cell confluence degree should be 70%-80% before use. • 4.2A sample dilution, a tested compound and α-CGRP (human) were prepared. • 4.3Cell seeding and drug effect: The SK-N-MC cells were digested, centrifuged, then resuspended with the sample dilution, and inoculated into a 384-well plate. Each well was added with the α-CGRP (human) and the tested compound respectively, and blown and mixed evenly. The well plate was adhered with a sealing film, and placed on an enzyme-labeled incubator to incubate at 25°C. • 4.4cAMP determination: carried out according to LANCE Ultra cAMP Kit specification Eu-cAMP tracer and ULight-anti-cAMP working solutions were prepared in the dark, respectively added into the well plate, and blown and mixed evenly.

[9] = male, rat, plasma, other: intranasal, IN@2 mg/kg
[10] = inhibition of CGRP-stimulated cAMP formation in SK-N-MC cells, read-out: IC50

Structure (SMILES): Cc1cc(C[C@@H](NC(=O)N2CCC(c3cc4c([nH]c3=O)SCC4)CC2)C(=O)N2CCN(C3CCN(C)CC3)CC2)cc2cn[nH]c12 [Example 8, (R)-N-(3-(7-methyl-1H-indazole-5-yl)-1-(4-(1-methylpiperidine-4-yl)piperazine-1-yl)-1-oxopropan-2-yl)-4-(6-oxo-2,3,6,7-tetrahydrothieno[2,3-b]pyridine-5-yl)piperidine-1-formamide]
fb (%) [1]: 64.1% | Apparent clearance CL ([2]; IV@1 mg/kg): 5.94 mL/min/kg | AUC ([2]; male, rat, plasma, IV@1 mg/kg): 2850 ng·h/mL | half-life ([2]; male, rat, plasma, IV@1 mg/kg): 7.58 h | Vd ([2]; male, rat, plasma, IV@1 mg/kg, read-out: Volume of distribution steady-state Vss): 0.5 L/kg | AUC [2, 9]: 626 ng·h/mL | bioavailability ([2]; male, rat, plasma, other: intranasal, IN@2 mg/kg, read-out: Bioavailability F%): 11% | Cmax ([2]; male, rat, plasma, other: intranasal, IN@2 mg/kg, read-out: Concentration to peak Cmax): 204 ng/mL | half-life [2, 9]: 3.41 h | half-life at 1 µM ([3]; 1.0 µM): > 2 h | microsomal CLint at 1 µM ([3]; 1.0 µM): 1.6 µL/min/mg | % remaining (60 min) [3]: 90.7% | half-life at 1 µM ([4]; 1.0 µM): 1.48 h | microsomal CLint at 1 µM ([4]; 1.0 µM): 15.6 µL/min/mg | % remaining (60 min) [4]: 61.6% | half-life at 1 µM ([5]; 1.0 µM): > 2 h | microsomal CLint at 1 µM ([5]; 1.0 µM): 3.2 µL/min/mg | % remaining (60 min) [5]: 85.8% | fb (%) [6]: 47.7% | fb (%) [7]: 69.4%

Structure (SMILES): [2H]C([2H])([2H])N1CCC(N2CCN(C(=O)[C@@H](Cc3cc(C)c4[nH]ncc4c3)NC(=O)N3CCC(c4cc5c([nH]c4=O)SCC5)CC3)CC2)CC1 [Example 29, (R)-N-(3-(7-methyl-1H-indazole-5-yl)-1-(4-(1-(methyl-d3)piperidine-4-yl)piperazine-1-yl)-1-oxopropan-2-yl)-4-(6-oxo-2,3,6,7-tetrahydrothieno[2,3-b]pyridine-5-yl)piperidine-1-formamide]
fb (%) [1]: 50.2% | % remaining (60 min) [3]: 105% | % remaining (60 min) [4]: 98.9% | % remaining (60 min) [5]: 115% | fb (%) [6]: 56.1% | fb (%) [7]: 64.3%

IC50 [8, 10]: 0.15 nM
Structure (SMILES): Cc1cc(C[C@@H](NC(=O)N2CCC(c3cc4c([nH]c3=O)SCC3(CC3)C4)CC2)C(=O)N2CCN(C3CCN(C)CC3)CC2)cc2cn[nH]c12 [Example 46, (R)-N-(3-(7-methyl-1H-indazole-5-yl)-1-(4-(1-methylpiperidine-4-yl)piperazine-1-yl)-1-oxopropan-2-yl)-4-(7'-oxo-7',8'-dihydro-2'H,4'H-spiro[cyclopropane-1,3'-thiopyrano[2,3-b]pyridine]-6'-yl)piperidine-1-formamide]

Structure (SMILES): Cc1cc(C[C@@H](NC(=O)N2CCC(c3cc4c([nH]c3=O)SCC3CC43)CC2)C(=O)N2CCN(C3CCN(C)CC3)CC2)cc2cn[nH]c12 (stereo partly drawn) [Example 47, N-((R)-3-(7-methyl-1H-indazole-5-yl)-1-(4-(1-methylpiperidine-4-yl)piperazine-1-yl)-1-oxopropan-2-yl)-4-(5-oxo-1,1a,2,4,5,7b-hexahydrocyclopropo[4,5]thiopyrano[2,3-b]pyridine-6-yl)piperidine-1-formamide]
IC50 [8]: 0.24 nM

IC50 [8, 10]: 0.14 nM
Structure (SMILES): Cc1cc(C[C@@H](NC(=O)N2CCC(c3cc4c([nH]c3=O)SCCC4)CC2)C(=O)N2CCN(C3CCNCC3)CC2)cc2cn[nH]c12 [Example 49, (R)-N-(3-(7-methyl-1H-indazole-5-yl)-1-oxo-1-(4-(piperidine-4-yl)piperazine-1-yl)propan-2-yl)-4-(7-oxo-3,4,7,8-tetrahydro-2H-thiopyrano[2,3-b]pyridine-6-yl)piperidine-1-formamide]

IC50 [8, 10]: 0.07 nM
Structure (SMILES): Cc1cc(C[C@@H](NC(=O)N2CCC(c3cc4c([nH]c3=O)SCC4)CC2)C(=O)N2CCN(C3CCNCC3)CC2)cc2cn[nH]c12 [Example 50, (R)-N-(3-(7-methyl-1H-indazole-5-yl)-1-oxo-1-(4-(piperidine-4-yl)piperazine-1-yl)propan-2-yl)-4-(6-oxo-2,3,6,7-tetrahydrothieno[2,3-b]pyridine-5-yl)piperidine-1-formamide]

Structure (SMILES): Cc1cc(C[C@@H](NC(=O)N2CCC(c3cc4c([nH]c3=O)CCC4)CC2)C(=O)N2CCN(C3CCN(C)CC3)CC2)cc2cn[nH]c12 [Example 51, (R)-N-(3-(7-methyl-1H-indazole-5-yl)-1-(4-(1-methylpiperidine-4-yl)piperazine-1-yl)-1-oxopropan-2-yl)-4-(2-oxo-2,5,6,7-tetrahydro-1H-cyclopentadieno[b]pyridine-3-yl)piperidine-1-f ormamide]
IC50 [8]: 1.94 nM

IC50 [8, 10]: 1.04 nM
Structure (SMILES): Cc1cc(C[C@@H](NC(=O)N2CCC(c3cc4c([nH]c3=O)CCCC4)CC2)C(=O)N2CCN(C3CCN(C)CC3)CC2)cc2cn[nH]c12 [Example 52, (R)-N-(3-(7-methyl-1H-indazole-5-yl)-1-(4-(1-methylpiperidine-4-yl)piperazine-1-yl)-1-oxopropan-2-yl)-4-(2-oxo-1,2,5,6,7,8-hexahydroquinoline-3-yl)piperidine-1-formamide]
